Consider 8 molecules from PubChem BioAssay (NCI).

Values joined by “and” are separate entries in the source; they are usually repeats but may differ in a detail not shown here. Equal entries are not always repeated.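 The compound was tested at five concentrations on cells cultured in 96-well plates, with a 48-hour exposure period. GI50 is the concentration that inhibits growth by half. The concentration for full growth arrest is given as TGI.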 Bounds are passed on as bounds.

Among the test systems are EKVX NSCLC; SF-295 CNS; SK-MEL-28 melanoma; KM12 colon; ACHN renal; OVCAR-5 ovarian; NCI-H226 lung; PC-3 prostate; HCC-2998 colon; HL-60(TB) leukemia.
Common to all, as to assay: NCI-60 cell line screen, 48 h

In the case of `C[C@@H]1OCC2(CCN(c3cnc(Sc4ccnc(N)c4Cl)c(N)n3)CC2)[C@@H]1N`, the GI50 is 0.573 µM with EKVX NSCLC; more than 100 µM in the experiment on SF-295 CNS; more than 100 µM with SK-MEL-28 melanoma; 5.46 µM in the experiment on KM12 colon; 4.71 µM with ACHN renal; more than 100 µM in the experiment with OVCAR-5 ovarian. Also, the GI50 in the experiment on PC-3 prostate, with HCC-2998 colon and in the experiment on HL-60(TB) leukemia was more than 100 µM each time. Moreover, the TGI in the experiment with EKVX NSCLC, in the experiment on SF-295 CNS, with SK-MEL-28 melanoma, in the experiment on KM12 colon, in the experiment on ACHN renal and with OVCAR-5 ovarian was more than 100 µM throughout. The TGI in the experiment on NCI-H226 lung, in the experiment with PC-3 prostate, in the experiment with HCC-2998 colon and with HL-60(TB) leukemia was more than 100 µM in each case.
Take `Clc1ccc2c(NCCNc3nc(N4CCCC4)nc4ccccc34)ccnc2c1`: the GI50 with EKVX NSCLC is 2.08 µM; with SF-295 CNS it was 1.47 µM; in the experiment on SK-MEL-28 melanoma, 1.84 µM; in the experiment on KM12 colon it was 1.02 µM; in the experiment with ACHN renal, 1.64 µM; in the experiment with OVCAR-5 ovarian, 2.15 µM. Also, the GI50 in the experiment on NCI-H226 lung is 1.95 µM; with PC-3 prostate it was 1.71 µM; with HCC-2998 colon, 1.78 µM; in the experiment on HL-60(TB) leukemia, 0.704 µM. Moreover, the TGI with EKVX NSCLC was determined as 7.65 µM; in the experiment with SF-295 CNS, 2.88 µM; with SK-MEL-28 melanoma, 3.55 µM; in the experiment with KM12 colon it was 2.46 µM; in the experiment with ACHN renal it was 3 µM; in the experiment on OVCAR-5 ovarian, 6.38 µM. Also, the TGI in the experiment with NCI-H226 lung was determined as 4.06 µM; in the experiment with PC-3 prostate, 8.73 µM; in the experiment on HCC-2998 colon, 4.37 µM; with HL-60(TB) leukemia, 1.54 µM.
On to `CCCCCC/C=C1\CCC(CN(C)C)C1=O` (configuration not stated), for which the TGI was found to be 42.3 µM in the experiment on EKVX NSCLC; 27 µM in the experiment on SF-295 CNS; 12 µM with SK-MEL-28 melanoma; 6.68 µM with KM12 colon; 22.2 µM in the experiment on ACHN renal; 30.8 µM with OVCAR-5 ovarian. Also, the TGI with NCI-H226 lung is 36.5 µM; in the experiment with PC-3 prostate it was 24 µM; in the experiment with HCC-2998 colon, 18.3 µM; in the experiment on HL-60(TB) leukemia it was 4.8 µM.
Take `COc1ccc(C2c3c(-c4ccccc4)nn(-c4ccccc4)c3Oc3ncn4nc(CC#N)nc4c32)cc1OC` (configuration not stated): the TGI with EKVX NSCLC was more than 76.3 µM; in the experiment on SF-295 CNS, more than 100 µM; in the experiment with SK-MEL-28 melanoma, more than 100 µM; with KM12 colon, more than 100 µM; with ACHN renal it was > 100 µM and 16.1 µM; with OVCAR-5 ovarian, > 100 µM and 13.8 µM. Besides, the TGI with NCI-H226 lung is 39 µM and 6.28 µM; in the experiment with PC-3 prostate, > 100 µM and 49.1 µM; with HCC-2998 colon it was more than 100 µM; in the experiment on HL-60(TB) leukemia, more than 100 µM. Besides, the GI50 with KM12 colon is 78.2 µM and > 22.1 µM; in the experiment on NCI-H226 lung, 15.9 µM and 2.09 µM; in the experiment with PC-3 prostate it was 32.6 µM and 12.3 µM; in the experiment on HCC-2998 colon, > 100 µM and 22.6 µM; in the experiment with HL-60(TB) leukemia it was 30.4 µM and > 100 µM.
In the case of `Fc1cccc(-c2[nH]nc3nc(Nc4cccnc4)sc23)c1`, the GI50 in the experiment on EKVX NSCLC is 6.75 µM; with SF-295 CNS, 3.82 µM; in the experiment on SK-MEL-28 melanoma it was 17.5 µM; in the experiment with KM12 colon it was 0.631 µM; in the experiment on ACHN renal it was 56.6 µM; in the experiment on OVCAR-5 ovarian, more than 100 µM. Besides, the GI50 in the experiment with NCI-H226 lung is more than 100 µM; with PC-3 prostate it was 6.34 µM; with HCC-2998 colon, more than 100 µM; in the experiment on HL-60(TB) leukemia, 1.24 µM. Besides, the TGI in the experiment on EKVX NSCLC, in the experiment with SF-295 CNS, in the experiment with SK-MEL-28 melanoma, in the experiment on KM12 colon, in the experiment with ACHN renal and in the experiment on OVCAR-5 ovarian was more than 100 µM in each case. In addition, the TGI in the experiment with NCI-H226 lung, in the experiment on PC-3 prostate, with HCC-2998 colon and in the experiment on HL-60(TB) leukemia was more than 100 µM throughout.
With `Cc1c(-c2nnc(-c3cc(Cl)c(Cl)cc3Cl)o2)nnn1-c1ccnc2c(C(F)(F)F)cccc12`, the GI50 in the experiment on EKVX NSCLC is 23.7 µM; in the experiment on SF-295 CNS it was 27.6 µM; in the experiment with SK-MEL-28 melanoma, 26.5 µM; in the experiment on KM12 colon it was 24.6 µM; in the experiment on ACHN renal, 21.9 µM; in the experiment with OVCAR-5 ovarian it was 32.1 µM. Besides, the GI50 in the experiment with NCI-H226 lung was 28.7 µM; with PC-3 prostate, 15.9 µM; with HCC-2998 colon, 29.1 µM; with HL-60(TB) leukemia it was 40.9 µM. For the same molecule, the TGI with EKVX NSCLC turned out to be 73.9 µM; with SF-295 CNS, 76.2 µM; with SK-MEL-28 melanoma it was 75.3 µM; in the experiment with KM12 colon, 67.4 µM; with ACHN renal, 51.6 µM; in the experiment on OVCAR-5 ovarian, 94.2 µM. Besides, the TGI with NCI-H226 lung is 91.7 µM; in the experiment on PC-3 prostate, 37.4 µM; with HCC-2998 colon, 91.9 µM; in the experiment on HL-60(TB) leukemia it was more than 100 µM.
As for `CCN1CCN(c2ccc(Nc3ncc4ccc5ncn(C(C)C)c5c4n3)nc2)CC1`, the GI50 was 0.131 µM in the experiment with EKVX NSCLC; 0.224 µM in the experiment on SF-295 CNS; 0.2 µM with SK-MEL-28 melanoma; 0.123 µM with KM12 colon; 0.0402 µM in the experiment with ACHN renal; 0.037 µM in the experiment with OVCAR-5 ovarian. Besides, the GI50 in the experiment with NCI-H226 lung was 0.148 µM; in the experiment on PC-3 prostate, 0.107 µM; with HCC-2998 colon, 0.161 µM; in the experiment on HL-60(TB) leukemia, less than 0.0238 µM. Further, the TGI worked out at 0.563 µM in the experiment with EKVX NSCLC; 0.794 µM in the experiment with SF-295 CNS; 1.45 µM in the experiment on SK-MEL-28 melanoma; 0.719 µM with KM12 colon; 10.6 µM in the experiment with ACHN renal; 21.5 µM with OVCAR-5 ovarian. For the same molecule, the TGI with NCI-H226 lung was 2.67 µM; with PC-3 prostate it was 1.36 µM; with HCC-2998 colon, 1.43 µM; in the experiment on HL-60(TB) leukemia, 0.586 µM.
As for `Nc1ccc(-c2ccc(-c3nc4cc(Cl)c(Cl)cc4[nH]3)cc2)cc1`, the GI50 is 11.6 µM in the experiment with EKVX NSCLC; 0.419 µM with SF-295 CNS; 13.4 µM in the experiment with SK-MEL-28 melanoma; 0.826 µM in the experiment with KM12 colon; 0.0833 µM in the experiment on ACHN renal; 26.2 µM with OVCAR-5 ovarian. The GI50 with NCI-H226 lung was 4.07 µM; in the experiment with PC-3 prostate, 7.99 µM; with HCC-2998 colon it was 0.1 µM; with HL-60(TB) leukemia, 8.22 µM. Further, the TGI in the experiment on EKVX NSCLC was more than 100 µM; with SK-MEL-28 melanoma, more than 100 µM; in the experiment on ACHN renal, more than 34.8 µM; with OVCAR-5 ovarian, more than 100 µM; in the experiment on NCI-H226 lung, more than 41.7 µM; in the experiment with PC-3 prostate it was more than 61.2 µM. Besides, the values for the TGI in the experiment with HCC-2998 colon and with HL-60(TB) leukemia were 0.426 µM and more than 100 µM, respectively.
